Experimental findings from patent US20240390388A1, “TRICYCLIC COMPOUNDS AND USE THEREOF” (MEDSHINE DISCOVERY INC., priority 2021, published 2024) are described below.

The subject of data set [1] is MDR1. In words: MDCK-MDR1 permeability test. The conditions noted are these: dog, pH 7.4, 2.5 hours. In kind it is in vitro ADME.
Procedure: Compounds in DMSO stock solution were diluted to 2 μM (DMSO<1%) with a transport buffer (HBSS with 10 mM Hepes, pH 7.4) and applied to the apical side or the basolateral side of the cell monolayer. Permeation of compounds from the A to B direction or from the B to A direction was determined in duplicate. The plate was incubated for 2.5 hours in a CO2 incubator at a temperature of 37+1° C. in a saturated humidity containing 5% CO2 without shaking. In addition, the efflux rate of each compound was also determined. Compounds were quantified by LC-MS/MS analysis based on the peak area ratio of analyte/IS.
After the transport assay, cell monolayer integrity was determined using the fluorescein exclusion test. The buffer was removed from the apical and basolateral chambers. Then 75 μL of 100 μM fluorescein transport buffer and 250 μL of transport buffer were added to the apical and basolateral chambers, respectively. The plate was incubated at 37° C., 5% CO2 and saturated humidity for 30 min without shaking. After 30 min of incubation, 20 μL of fluorescein sample was collected from the apical side, and 60 μL of transport buffer was added. An 80 μL of fluorescein sample was then collected from the basolateral side. Relative fluorescence units (RFU) of fluorescein were measured at 425/528 nm (excitation/emission) with an Envision microplate reader.
Data set [2] has as its system HCC1954 cells with PIK3CA mutation. Briefly: Cell activity test in vitro, anti-proliferation by CTG method, HCC1954. The conditions noted are these: 72 hours. In kind it is cell-based.
Procedure: By CTG method, the effect of the compound to be tested on the anti-proliferation activity of cells was determined in two cell lines, HCC1954 and HDQ-P1.
(1) HCC1954 and HDQ-P1 cells (ATCC® HTB-22™) were inoculated into 96-well plates, respectively, with 100 μL of cell complete medium per well (4000 cells/HDQ-P1 per well, 3500 cells/HCC1954 per well). Cells were cultured at 37° C., 5% CO2 for 24 hours.
(2) The cell complete medium was replaced by 100 μL of serum-free medium. The cells were starved overnight.
(3) Compounds were prepared (the starting concentration of the compound was 10 μM, and diluted 3-fold for 8 concentrations. Each concentration of the compound was then diluted 100-fold with serum-free medium), and 25 μL of the diluted compound was added to the plate containing the cells.
(4) The well plate was incubated at 37° C., 5% CO2 for 72 hours (HCC1954) or 120 hours (HDQ-P1).
(5) Subsequent operations were performed according to the instructions of the Promega CTG kit.
Data set [3] has as its target T1, PI3K δ (Homo sapiens, UniProt O00329).
T1 construct: purchased Millipore 14-604-K
In words: Enzyme activity test in vitro (ADP-Glo lipid kinase), PI3K δ. In kind it is biochemical. The conditions noted are these: ATP 40 μM, 120 min. As to the method:
(§1) The lipid kinase reaction was carried out under the conditions of the appropriate substrate and ATP. Then the kinase activity was tested with the ADP-Glo™ kit in two steps. Step 1: The kinase reaction was terminated, in which residual ATP was completely removed, and only ADP was remained; Step 2: Kinase test reagent was added to convert ADP into ATP, accompanied by luciferin/luciferase reaction. Finally, the […] numerical output value was converted into kinase activity.
(§2) b) Kit: ADP-Glo™ Lipid Kinase and PIP2: 3PS Kit (Promega #V1792)
(§3) b) Final test system conditions: 1× reaction system: 50 mM HEPES, 50 mM NaCl, 3 mM MgCl2, 0.01% BSA (freshly prepared on the day of the experiment), 1% DMSO (v/v) +/−compound
(§4) c) Reaction system: 3 μL mixture of enzyme and substrate (1:1)+2 μL ATP/MgCl2 mixture +5 μL ADP-Glo reagent+10 μL assay reagent.
(§5) a) Compound dilution: 50 nL of 100× compound/DMSO was transferred to the test well plate with Echo
(§6) For PI3K β/PI3K δ/PI3K γ, the compounds were diluted three-fold from the highest concentration of 1.11 mM for a total of 10 concentrations.
(§7) (1) The compound to be tested was prepared. 50 nL of […] compound solution or DMSO was added to the corresponding well plate. […]
(§8) (16) Fluorescence values were measured on an Envision instrument.

For data set [4], the target named is T2, PI3K α (Homo sapiens, UniProt P42336).
T2 construct: purchased Millipore 14-602-K
In words: Enzyme activity test in vitro (ADP-Glo lipid kinase), PI3K α. In kind it is biochemical. The conditions noted are these: ATP 40 μM, 120 min. The method, then:
as §1, §2, §3, §4, §5
For PI3K α, the compounds were diluted three-fold from the highest concentration of 0.111 mM for a total of 10 concentrations.
as §7, §8

A short description of data set [5]: In vivo DMPK study in male CD-1 mice. The source says:
Experimental purpose: Male CD-1 mice were used as test animals to determine plasma concentrations of compounds after a single administration and evaluate pharmacokinetic behavior.
Experimental operation: 8 healthy adult male CD-1 mice were selected, 4 for the intravenous injection group and 4 for the oral administration group. The compound to be tested was mixed with an appropriate amount of the solvent (DMSO/solvent/water (10:10:80 v/v/v)) for the intravenous injection group. The mixture solution was vortexed and sonicated to prepare a 1.0 mg/mL clear solution, which was filtered through a microporous membrane for further use. For the oral administration group, the solvent was DMSO/solvent/water (10:10:80 v/v/v). After the compound to be tested was mixed with the solvent, the mixture solution was vortexed and sonicated to prepare a 1.0 mg/mL homogeneous suspension for further use. After 1 mg/kg intravenous administration or 3 mg/kg oral administration in mice, whole blood was collected for a certain period of time to prepare plasma, and the drug concentration was analyzed by LC-MS/MS method, then the pharmacokinetic parameters were calculated using Phoenix WinNonlin software (Pharsight, USA).

Data set [6] deals with T3, PI3K β (Homo sapiens, UniProt P42338).
T3 construct: purchased Promega V1751
In words: Enzyme activity test in vitro (ADP-Glo lipid kinase), PI3K β. In kind it is biochemical. The conditions noted are these: ATP 40 μM, 120 min. The method, then: as §1, §2, §3, §4, §5, §6, §7, §8

Data set [7] can be described thus: Rat plasma-protein binding. In kind it is in vitro ADME.
The nature of data set [8]: In vivo plasma/brain tissue distribution study in male SD rats. The conditions noted are these: oral 10 mpk. The source says:
Experimental purpose: Male SD rats were used as test animals to determine plasma concentrations of compounds and drug concentrations of brain tissue and cerebrospinal fluid after a single administration, and to evaluate the brain entry of the compound of the present disclosure.
Experimental operation: 12 healthy adult male SD rats were selected. The compound to be tested was mixed with an appropriate amount of solvent (DMSO/solvent/water (10:10:80 v/v/v)) for the oral administration group. The mixture was vortexed and sonicated to prepare a 1.0 mg/mL clear solution for further use. After oral administration of 10 mg/kg to rats, whole blood, brain tissue, and cerebrospinal fluid for a certain period of time were collected to prepare plasma, brain homogenate, and cerebrospinal fluid. The drug concentration was analyzed by LC-MS/MS method, and the pharmacokinetic parameters were calculated by Phoenix WinNonlin software (Pharsight, USA).

The target of data set [9] is T4, PI3K γ (Homo sapiens, UniProt P48736).
T4 construct: purchased Millipore 14-558-K
Briefly: Enzyme activity test in vitro (ADP-Glo lipid kinase), PI3K γ. The conditions noted are these: ATP 25 μM, 120 min. The format is biochemical. The method, then:
as §1, §2, §3, §4, §5, §6, §7, §8

Like-named read-outs stand apart in the source and are kept apart here.

T3 sequence (P42338 whole entry): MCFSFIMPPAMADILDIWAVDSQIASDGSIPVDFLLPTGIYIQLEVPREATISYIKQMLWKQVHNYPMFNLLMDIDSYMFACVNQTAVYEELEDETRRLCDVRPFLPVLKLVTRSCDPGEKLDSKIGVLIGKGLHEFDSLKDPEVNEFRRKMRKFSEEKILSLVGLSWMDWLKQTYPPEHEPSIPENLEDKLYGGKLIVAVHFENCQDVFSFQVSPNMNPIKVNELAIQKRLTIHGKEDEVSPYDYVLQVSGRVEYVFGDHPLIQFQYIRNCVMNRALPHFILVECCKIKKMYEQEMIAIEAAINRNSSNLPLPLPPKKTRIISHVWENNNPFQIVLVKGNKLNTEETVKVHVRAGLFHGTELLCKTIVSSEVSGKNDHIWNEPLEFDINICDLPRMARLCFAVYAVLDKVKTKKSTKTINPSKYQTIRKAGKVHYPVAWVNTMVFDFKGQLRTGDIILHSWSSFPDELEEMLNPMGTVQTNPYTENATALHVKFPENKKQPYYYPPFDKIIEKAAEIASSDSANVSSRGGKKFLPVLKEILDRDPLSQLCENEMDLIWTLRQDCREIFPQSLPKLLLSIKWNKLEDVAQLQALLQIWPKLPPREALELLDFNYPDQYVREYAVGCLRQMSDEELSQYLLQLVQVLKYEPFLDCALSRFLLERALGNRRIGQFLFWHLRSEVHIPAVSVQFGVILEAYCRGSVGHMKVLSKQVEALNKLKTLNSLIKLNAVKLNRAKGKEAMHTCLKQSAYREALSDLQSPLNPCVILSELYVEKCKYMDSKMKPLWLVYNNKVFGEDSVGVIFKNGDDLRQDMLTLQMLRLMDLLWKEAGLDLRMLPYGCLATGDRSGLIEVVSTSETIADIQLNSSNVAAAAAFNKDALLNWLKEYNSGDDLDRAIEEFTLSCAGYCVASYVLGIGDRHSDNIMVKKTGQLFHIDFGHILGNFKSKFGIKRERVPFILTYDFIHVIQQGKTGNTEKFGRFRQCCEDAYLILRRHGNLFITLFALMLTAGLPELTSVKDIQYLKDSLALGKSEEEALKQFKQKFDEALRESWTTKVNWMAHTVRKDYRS
T3 sequence (P27986 whole entry partner): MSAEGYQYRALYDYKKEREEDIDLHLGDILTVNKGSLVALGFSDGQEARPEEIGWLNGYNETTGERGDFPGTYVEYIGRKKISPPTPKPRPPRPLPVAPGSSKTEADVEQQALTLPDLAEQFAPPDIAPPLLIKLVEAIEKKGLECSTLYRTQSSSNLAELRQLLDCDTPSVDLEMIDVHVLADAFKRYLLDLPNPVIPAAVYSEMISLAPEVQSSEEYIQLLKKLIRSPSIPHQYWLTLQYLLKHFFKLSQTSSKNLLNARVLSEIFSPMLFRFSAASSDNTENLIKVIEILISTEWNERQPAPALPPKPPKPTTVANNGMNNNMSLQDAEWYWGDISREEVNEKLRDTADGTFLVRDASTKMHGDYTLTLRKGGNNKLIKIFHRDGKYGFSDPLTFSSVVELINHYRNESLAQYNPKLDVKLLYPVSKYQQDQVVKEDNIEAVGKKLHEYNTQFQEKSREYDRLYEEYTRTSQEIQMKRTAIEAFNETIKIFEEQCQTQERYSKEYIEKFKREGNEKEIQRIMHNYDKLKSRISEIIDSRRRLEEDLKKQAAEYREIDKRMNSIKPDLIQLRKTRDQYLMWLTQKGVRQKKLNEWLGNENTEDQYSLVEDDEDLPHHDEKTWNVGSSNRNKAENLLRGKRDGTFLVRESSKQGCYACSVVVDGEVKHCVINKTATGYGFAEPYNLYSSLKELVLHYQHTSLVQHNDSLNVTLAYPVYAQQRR
T1 sequence (O00329 whole entry): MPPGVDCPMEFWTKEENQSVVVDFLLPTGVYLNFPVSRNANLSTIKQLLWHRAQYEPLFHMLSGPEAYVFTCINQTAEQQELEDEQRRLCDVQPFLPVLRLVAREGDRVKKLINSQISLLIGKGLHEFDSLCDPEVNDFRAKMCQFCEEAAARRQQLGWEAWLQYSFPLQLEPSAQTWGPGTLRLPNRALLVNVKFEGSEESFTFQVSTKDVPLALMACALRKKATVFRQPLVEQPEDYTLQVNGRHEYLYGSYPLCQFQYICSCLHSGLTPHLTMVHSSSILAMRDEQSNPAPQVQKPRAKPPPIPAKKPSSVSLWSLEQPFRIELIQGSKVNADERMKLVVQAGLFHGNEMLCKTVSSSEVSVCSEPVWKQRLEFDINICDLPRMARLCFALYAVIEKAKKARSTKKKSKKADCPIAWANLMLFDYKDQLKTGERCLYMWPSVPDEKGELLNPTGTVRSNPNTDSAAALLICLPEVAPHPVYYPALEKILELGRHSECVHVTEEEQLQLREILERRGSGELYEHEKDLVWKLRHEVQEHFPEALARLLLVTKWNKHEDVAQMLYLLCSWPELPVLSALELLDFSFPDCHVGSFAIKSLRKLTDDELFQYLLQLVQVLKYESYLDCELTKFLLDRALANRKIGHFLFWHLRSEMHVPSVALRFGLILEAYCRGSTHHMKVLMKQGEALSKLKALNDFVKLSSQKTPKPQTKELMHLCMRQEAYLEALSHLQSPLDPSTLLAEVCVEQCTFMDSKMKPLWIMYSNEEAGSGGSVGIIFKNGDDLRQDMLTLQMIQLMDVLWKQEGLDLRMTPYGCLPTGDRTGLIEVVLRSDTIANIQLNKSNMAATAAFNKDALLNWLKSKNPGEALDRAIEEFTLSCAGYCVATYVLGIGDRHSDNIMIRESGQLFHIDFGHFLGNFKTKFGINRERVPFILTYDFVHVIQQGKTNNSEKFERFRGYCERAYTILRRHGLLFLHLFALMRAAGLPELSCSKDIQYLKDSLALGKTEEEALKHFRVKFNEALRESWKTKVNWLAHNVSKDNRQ
T1 sequence (P27986 whole entry partner): as the sequence (P27986 whole entry partner) above
T4 sequence (P48736 whole entry): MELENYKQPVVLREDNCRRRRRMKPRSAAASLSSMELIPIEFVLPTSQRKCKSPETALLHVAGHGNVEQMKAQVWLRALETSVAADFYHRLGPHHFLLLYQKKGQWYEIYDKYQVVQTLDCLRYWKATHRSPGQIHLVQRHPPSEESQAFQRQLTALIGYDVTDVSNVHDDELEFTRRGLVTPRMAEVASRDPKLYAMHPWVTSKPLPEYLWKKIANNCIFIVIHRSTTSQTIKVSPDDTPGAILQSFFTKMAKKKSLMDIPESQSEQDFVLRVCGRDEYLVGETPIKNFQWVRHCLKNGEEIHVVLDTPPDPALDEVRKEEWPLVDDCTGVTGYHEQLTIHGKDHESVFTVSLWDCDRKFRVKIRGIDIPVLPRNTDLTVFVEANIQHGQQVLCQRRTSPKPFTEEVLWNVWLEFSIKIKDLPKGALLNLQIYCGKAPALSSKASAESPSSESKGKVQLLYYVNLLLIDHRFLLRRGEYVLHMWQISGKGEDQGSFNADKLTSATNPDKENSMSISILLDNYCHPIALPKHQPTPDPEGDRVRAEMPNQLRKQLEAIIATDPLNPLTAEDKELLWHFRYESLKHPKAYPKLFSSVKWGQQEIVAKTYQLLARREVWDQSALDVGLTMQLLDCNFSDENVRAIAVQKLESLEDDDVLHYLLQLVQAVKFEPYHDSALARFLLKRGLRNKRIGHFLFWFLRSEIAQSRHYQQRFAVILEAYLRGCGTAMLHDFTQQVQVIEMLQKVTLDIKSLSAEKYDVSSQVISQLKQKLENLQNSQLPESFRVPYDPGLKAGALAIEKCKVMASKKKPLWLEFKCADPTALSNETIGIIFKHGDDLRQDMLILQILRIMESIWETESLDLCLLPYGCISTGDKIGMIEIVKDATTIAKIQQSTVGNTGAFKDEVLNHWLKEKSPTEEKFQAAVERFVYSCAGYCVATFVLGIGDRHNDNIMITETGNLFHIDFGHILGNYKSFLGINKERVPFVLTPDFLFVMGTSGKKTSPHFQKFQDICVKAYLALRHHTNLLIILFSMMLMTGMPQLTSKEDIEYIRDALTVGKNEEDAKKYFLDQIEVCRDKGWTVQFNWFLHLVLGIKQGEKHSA
T2 sequence (P42336 whole entry): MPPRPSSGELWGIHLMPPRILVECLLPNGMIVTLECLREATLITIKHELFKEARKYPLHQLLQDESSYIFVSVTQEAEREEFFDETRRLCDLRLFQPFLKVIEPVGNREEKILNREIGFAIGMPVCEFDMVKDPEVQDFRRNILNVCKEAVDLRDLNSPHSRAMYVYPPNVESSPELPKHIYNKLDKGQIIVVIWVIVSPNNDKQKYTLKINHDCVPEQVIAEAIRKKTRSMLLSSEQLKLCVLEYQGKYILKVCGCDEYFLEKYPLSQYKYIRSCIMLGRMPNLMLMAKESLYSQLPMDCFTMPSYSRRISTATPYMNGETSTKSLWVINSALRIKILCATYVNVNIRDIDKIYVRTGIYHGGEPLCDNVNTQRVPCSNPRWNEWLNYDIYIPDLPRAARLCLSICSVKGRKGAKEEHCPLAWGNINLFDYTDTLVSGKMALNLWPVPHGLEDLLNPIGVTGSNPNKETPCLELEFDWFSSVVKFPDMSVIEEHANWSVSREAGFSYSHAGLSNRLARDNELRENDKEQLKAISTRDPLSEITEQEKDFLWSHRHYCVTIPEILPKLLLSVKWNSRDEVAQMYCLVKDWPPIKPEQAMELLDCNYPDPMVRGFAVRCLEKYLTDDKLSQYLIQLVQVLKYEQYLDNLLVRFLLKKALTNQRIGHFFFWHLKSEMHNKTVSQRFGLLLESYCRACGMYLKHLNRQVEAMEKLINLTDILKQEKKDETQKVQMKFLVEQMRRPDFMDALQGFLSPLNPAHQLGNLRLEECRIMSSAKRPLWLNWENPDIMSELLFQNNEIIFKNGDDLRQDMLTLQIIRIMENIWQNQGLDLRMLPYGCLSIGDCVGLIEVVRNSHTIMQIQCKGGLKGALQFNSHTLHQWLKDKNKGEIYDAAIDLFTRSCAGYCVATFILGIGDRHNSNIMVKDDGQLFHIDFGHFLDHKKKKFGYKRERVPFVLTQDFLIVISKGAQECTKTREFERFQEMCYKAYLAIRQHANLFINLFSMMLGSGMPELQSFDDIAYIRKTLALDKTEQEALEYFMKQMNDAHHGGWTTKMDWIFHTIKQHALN
T2 sequence (P27986 whole entry partner): as the sequence (P27986 whole entry partner) above

`C[C@H](Nc1ccc2c(c1)OCCn1cc(N3C(=O)OC[C@H]3C(F)F)nc1-2)C(N)=O` [GDC-0077] returned an apical-to-basolateral permeability (Papp A→B) at 2.5 h, 2 μM in data set [1] of 1.99 ×10⁻⁶ cm/s. Further, the Papp B→A at 2.5 h, 2 μM in data set [1] was determined as 16 ×10⁻⁶ cm/s. For the same compound, the IC50 was determined as 101 nM in [2]; 133 nM in [3]; 0.75 nM in [4]; 852 nM in data set [6]; 72 nM in [9]. In addition, in data set [5] (3 mg/kg oral administration), the “Oral DNAUC” value was 778 nM · h/mpk. Further, the clearance in data set [5] (male, CD-1, mouse, plasma, 1 mg/kg intravenous, read-out: Intravenous injection Cl) stood at 26.1 mL/min/kg. For the same compound, the half-life in [5] (male, CD-1, mouse, plasma, 1 mg/kg intravenous, read-out: Intravenous injection T1/2 (converted)) was 1.2 h; in data set [8] (male, SD, rat, 10 mg/kg, plasma, read-out: T1/2, Plasma (converted)), 1.32 h. In addition, the volume of distribution (Vd) in data set [5] (male, CD-1, mouse, plasma, 1 mg/kg intravenous, read-out: Intravenous injection Vd) worked out at 1.09 L/kg. The Cmax is 1760 nM in data set [5] (male, CD-1, mouse, plasma, 3 mg/kg oral administration); 60.4 nM in data set [8] (male, SD, rat, 10 mg/kg, cerebrospinal fluid, read-out: Cmax, Cerebrospinal fluid); 1520 nM in [8] (male, SD, rat, 10 mg/kg, plasma, read-out: Cmax, Plasma). Moreover, the bioavailability in data set [5] (male, CD-1, mouse, plasma, 3 mg/kg oral vs 1 mg/kg intravenous, read-out: Oral F %) is 50%. Further, the fraction unbound in data set [7] amounted to 0.515. Also, the time to peak (Tmax) in data set [8] (male, SD, rat, 10 mg/kg, brain tissue, read-out: Tmax, Brain tissue) was determined as 1 h; in data set [8] (male, SD, rat, 10 mg/kg, cerebrospinal fluid, read-out: Tmax, Cerebrospinal fluid), 1 h; in data set [8] (male, SD, rat, 10 mg/kg, plasma, read-out: Tmax, Plasma) it was 0.25 h. Further, the exposure (AUC) in [8] (male, SD, rat, 10 mg/kg, cerebrospinal fluid, read-out: AUC, Cerebrospinal fluid) turned out to be 0.128 µM·h; in data set [8] (male, SD, rat, 10 mg/kg, plasma, read-out: AUC, Plasma), 3.12 µM·h. In addition, the “AUC, Brain tissue” value in data set [8] (brain tissue) is listed as “ND, 342 nM * h”. Also, the “Cmax, Brain tissue” value in [8] (brain tissue) worked out at 147 nM.
